Patent publication US20020039780A1, “Salicyclic acid inducible genes and promoters” (priority 1998, published 2002)

Assays:
Type in all cases: cell-based
C18-1/EREBP1 = test: Northern analysis of mRNA accumulation in cultured tobacco cells; conditions: SA time course, full length cDNA probe
G8-1 = test: as above
Procedure: FIG. 1. […] Northern analysis of genes identified by differential display. Gel-purified DNA fragments produced by ddPCR were either used directly for random-primed labeling and probing of Northern filters (e.g. C7-1, C6-1, and G9-2) or first subcloned and released by restriction digest. Each lane contains 1 μg of poly(A) mRNA from cultured tobacco cells treated with (1) H2O, 4 hr; (2) 200 μM SA, 4 hr; (3) 71 μM CHX, 5 hr; (4) 71 μM CHX, 5 hr plus 200 μM SA after 1 hr (4 hr total); (5) 20 μM SA, 2 hr; (7) 200 μM SA, 8 hr.
FIG. 2. Time course of SA-induced gene expression. Northern analysis of representative differential display genes following treatment of cultured tobacco cells with SA for the indicated time (in hours, except lanes 2-4, which refer to 10, 20, and 30 min.). Twenty micrograms of total RNA was loaded per lane. Blots were hybridized with ddPCR fragments indicated at right or with the β-ATPase gene as a loading control probe. Autoradiogram exposure times were optimized for each gene. […] Labels on left indicate response class.
FIG. 4. Specificity of induction among SA analogs and other signalling compounds. Northern analysis of representative differential display genes following treatment of tobacco cells with 100 μM or 1 mM (left and right side of triangles, respectively) of the following chemicals for 2-2.5 hr: salicylic acid (SA, lanes 4 and 5), acetylSA (ASA, lanes 6 and 7), benzoic acid (BA, lanes 8 and 9), 4-hydroxybenzoic (4HBA, lanes 10 and 11), thiamine (thia, lanes 12 and 13), methyljasmonate (MJ, lanes 14 and 15), abscisic acid (ABA, lanes 16 and 17), or 2,4-dichlorophenoxyacetic acid (2,4-D, lanes 18 and 19). Control treatments are H2O (H, lane 1), 1% ethanol (E, solvent concentration in MJ treatments, lane 2), or 1% DMSO (D, solvent concentration in 2,4D treatments, lane 3). Blots were hybridized with ddPCR fragments indicated at right or with the β-ATPase geneas a loading control probe. Autoradiogram exposure times were optimized for each gene. […] Labels on left indicate response class.
FIG. 5. Dose response of C18-1 and G8-1 to a range of chemicals. Northern analysis of tobacco cell cultures with eight concentrations of SA, ASA, BA, 4HBA, Thia, MJ, ABA, 2,4-D, or H2O for 2-2.5 hr. Concentrations were 0.1, 1, 3, 10, 30, 100, 300 μM or […], as indicated.
FIG. 6. […] Graphic representation of mRNA accumulation of G8-1 ( ), C18se -1 (♦), and IEGT (o) in response to a 2-2.5 hr incubation of cultured tobacco cells with a range of SA concentrations. RNA gel blots were quantitated by phosphorimaging analysis and normalized relative to the β-ATPase gene loading control (not shown).
Differential display technology (Liang, P. and Pardee, A. B., Science 257: 967-971, 1992) was used to identify genes activated in the presence of SA, CHX and both. Therefore the absence or presence of SA, induction at 3 timepoints of SA-treatment, 2 different concentrations of SA and the effect of addition of CHX were measured. Seven treatments in total were performed. Treatment of tobacco BY-2 suspension cells and leaves and differential display PCR reactions were performed as described (Horvath and Chua (1996), Plant Mol. Biol. 31, 1061-1072).
The specificity for induction by SA was tested by treating tobacco cells with a range of SA analogs and plant signalling compounds at 0.1 and 1 mM for approximately 2.5 h.

IEGT-Luc1 lines = test: Promoter-luciferase reporter activity in leaves of transgenic tobacco; conditions: leaf halves infiltrated with 1 mM SA for 4-12 hours; six out of ten lines
Procedure: (§1) FIG. 8. A. Schematic representation of the set-up of the experiment investigating SA-inducible gene expression in plants carrying a promoter-luciferase reporter construct. Parts of the leaves of transgenic plants are harvested, split and one half treated by infiltration by SA. The other half is treated with water. Then both halves are sprayed with luciferin solution and tested for luminescence. B. Results of the experiment using leaves of tobacco transgenic for the IEGT/G1-1 promoter-luciferase reporter construct. On the picture, the lefthand side of the leave was infiltrated with SA, the right hand side infiltrated with water. Increased luminescence is indicated by the lighter colors.
(§2) Amplified fragments were digested with BamHI and HindIII and subcloned into BamHI and HindIII-digested vector VIP11•-FFLuc (Anderson et al., 1994, Plant J. 4, 457-470) containing the firefly luciferase gene. This vector positions the promoter sequences directly upstream the promoterless FFLuc gene. […]
(§3) Leaves of primary transformants or S1 progeny were tested for reporter gene activity by excising halves of the leaves, splitting and infiltration with either water or 1 mM SA for 4-12 hours. Leaves were then sprayed with the reporter substrate luciferin (1 mM luciferin with 0.1% Triton X-100 in water) and the luminescence counted by video-imaging and quantitation equipment (schematically shown in FIG. 8A).

IEGT-Luc2 lines = test: as above; conditions: leaf halves infiltrated with 1 mM SA or water for 4-12 hours; all ten lines
Procedure: as §1, §2, §3

SMILES: O=C(O)c1ccccc1O [SA, salicylic acid]
- time at which increase in C18-1/EREBP1 mRNA is first apparent (C18-1/EREBP1): 10 min
- G8-1 mRNA levels at 20 μM SA (G8-1; 20 μM SA): comparable to those at 200 μM
- G8-1 induction at 0.1 mM versus 1 mM (G8-1; 0.1 and 1 mM, approximately 2.5 h): equal or greater induction at 0.1 mM versus 1 mM
- mRNA induction of G8-1 (class III) (G8-1; SA at 2, 4, 8 h, 71 μM CHX 5 hrs): rapid mRNA induction
- time at which G8-1 is first detected (G8-1; SA time course): 30 to 60 min
- time at which G8-1 reaches a plateau (G8-1; SA time course): 2 to 2.5 h
- time for which G8-1 plateau is maintained (G8-1; SA time course): at least 12 h
- SA-induced luciferase expression over controls (IEGT-Luc1 lines): 2.3-6 fold
- luciferase activity (IEGT-Luc2 lines): only baseline activity
